The text below walks through data of patent US20250011311A1, “AMIDO HETEROAROMATIC COMPOUNDS” (AstraZeneca AB, priority 2022, published 2025).

In series [1] the target is over expressed HSD17β13 in HEK293S cells (Homo sapiens (Human), UniProt Q7Z5P4). Kind of series: In Vitro 17bHSD13 Cell Assay. The class given is cell-based. Particulars: HEK293S cells over expressing HSD17β13; estradiol to estrone conversion, 18 h, LC-MS/MS; read-out: 17bHSD1713 Cell assay IC50. A digest of the protocol:
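HEK293S cells overexpressing HSD17β13 convert estradiol to estrone; product read by LC-MS/MS (APCI, positive MRM) as AUC ratio estrone/(estrone+estradiol). Effect normalised between DMSO and maximal inhibition by a known inhibitor control; IC50 from curve fit.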

The target in series [2] is recombinant 17bHSD13 (N2-K300) (Homo sapiens (Human), UniProt Q7Z5P4). Kind of series: In Vitro 17bHSD13 Enzyme Assay. It counts as biochemical. Particulars: 80 nM 17bHSD13, 0.5 mM NAD, 20 μM Estradiol, 2.5 h; estradiol to estrone by LC-MS/MS. In short, it runs like this:
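Human 17bHSD13 (N2-K300, 80 nM) with 0.5 mM NAD, 20 μM estradiol and varied compound in 50 mM Tris-Cl pH 7.4, 5 mM EDTA, 0.01% DDM. Estrone/(estrone+estradiol) ratio read by LC-MS/MS (APCI, positive MRM). Inhibition normalised to DMSO and a known-inhibitor control; IC50 from curve fit.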

The next series deals with CYP2C9 (Homo sapiens (Human), UniProt P11712). Kind of series: Assay B: Cytochrome P450 Inhibition 2C9.
Another series concerns human hepatocytes. Kind of series: Assay A: Metabolic Stability in Human Hepatocytes. It counts as in vitro ADME. Particulars: cryopreserved human hepatocytes, 10^6 viable cells/mL, 1 μM compound, 37° C. The procedure:
Assay A: Metabolic Stability in Human Hepatocytes
Hepatocyte metabolic stability was determined in accordance with the method described by Jacobson et al., An optimized automated assay for determination of metabolic stability using hepatocytes: assay validation, variance component analysis, and in vivo relevance. Assay Drug Dev Technol 2007, 5 (3), 403-415. DOI: 10.1089/adt.2007.059, which is incorporated herein by reference. Cryopreserved hepatocytes at a concentration of 10^6 viable cells/mL were used. After thawing, hepatocytes were incubated for 10 min to warm to 37° C. and test compounds, dissolved in acetonitrile, were added to give a final concentration of 1 μM. At 0.5, 5, 15, 30, 45, 60, 80, 100 and 120 min, the incubation system was mixed and 20 μL aliquots were transferred at each time point to wells in a separate plate filled with 80 μL MeCN to stop the reaction. The quenching plate was then vortexed followed by centrifugation, and supernatants were analyzed by LC-MS/MS. Peak areas were determined from extracted ion chromatograms, and the in vitro intrinsic clearance (in vitro CLint, in μL/min/10^6 cells) of parent compound was calculated from the slope in the regression analysis of the natural logarithm of parent concentration vs time curve.

Series [3] addresses over expressed HSD17β9 in HEK293S cells (Homo sapiens (Human), UniProt Q92781). The series can be described thus: In Vitro 17bHSD9 Cell Assay. The class given is cell-based. Particulars: HEK293S cells over expressing HSD17β9; retinol to retinal conversion, 18 h, LC-MS/MS; read-out: 17bHSD9 Cell assay IC50. A digest of the protocol: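 HEK293S cells overexpressing HSD17β9 were plated at 10K cells/well in DMEM + 10% FBS and cultured 18 h. Retinol-to-retinal conversion in media was quantified by LC-MS/MS (MRM) as retinal/(retinal + retinol). IC50 was fitted after normalisation to DMSO and full inhibition by a reference inhibitor.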

In series [4] the target is recombinant 17bHSD4 (M1-N311) (Homo sapiens (Human), UniProt P51659). The series can be described thus: In Vitro 17bHSD4 Enzyme Assay. It counts as biochemical. Particulars: 40 nM 17bHSD4, 0.125 mM NAD, 15 μM Estradiol, 1.5 h; NADH fluorescence; read-out: 17HSD17b4 Enzyme assay IC50. The procedure:
In Vitro 17bHSD4 Enzyme Assay
10 concentration of compounds (0.2 μl) in DMSO was added to GREINER FLUOTRAC 200 384 well plate (781076) using ECHO dispensing (BECKMAN COULTER). 80 nl of 10 mM Estradiol (SIGMA, E8875) was added using Echo dispensing. The enzyme reaction was initiated by addition, using MULTIDROP COMBI dispensing (THERMO FISHER), of 40 μl of a mix containing recombinant 17bHSD4 (M1-N311) and NAD. Final assay conditions were 40 nM of 17bHSD4, 0.125 mM of NAD, 15 μM Estradiol and various concentrations of compound in buffer (5 mM EDTA (TEKNOVA E0306), 0.01% DDM (AFFYMETRIX D310) in 50 mM Tris-Cl, pH 7.4). After each addition plates were centrifuged for 1 min at 150×g (EPPENDORF, 5810R, A-4-81). NADH formation was measured by fluorescence intensity (FI) (Ex360/Em460) at time zero (to) and at 1.5 h (t1) in a PHERASTAR FSX (BMG LABTECH). FI for each sample was calculated as FI at t1 minus FI at t0.
[…] […] was used for curve fitting and calculation of IC50 values.
Compound effect was calculated with the formula below;
where X represents the effect in the presence of test compound, min is DMSO and max is the maximum inhibition of enzyme using a known inhibitor as control.

Some results are limits rather than exact numbers.

recombinant 17bHSD13 (N2-K300), sequence (Q7Z5P4 2-300): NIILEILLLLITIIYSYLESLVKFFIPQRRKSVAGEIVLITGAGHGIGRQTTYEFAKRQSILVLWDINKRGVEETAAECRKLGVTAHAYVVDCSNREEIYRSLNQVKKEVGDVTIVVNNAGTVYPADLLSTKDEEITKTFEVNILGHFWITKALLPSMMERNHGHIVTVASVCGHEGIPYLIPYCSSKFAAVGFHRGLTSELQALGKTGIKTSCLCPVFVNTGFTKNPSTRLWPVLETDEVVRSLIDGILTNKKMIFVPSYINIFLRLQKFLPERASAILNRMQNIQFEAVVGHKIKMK
recombinant 17bHSD4 (M1-N311), sequence (P51659 1-311): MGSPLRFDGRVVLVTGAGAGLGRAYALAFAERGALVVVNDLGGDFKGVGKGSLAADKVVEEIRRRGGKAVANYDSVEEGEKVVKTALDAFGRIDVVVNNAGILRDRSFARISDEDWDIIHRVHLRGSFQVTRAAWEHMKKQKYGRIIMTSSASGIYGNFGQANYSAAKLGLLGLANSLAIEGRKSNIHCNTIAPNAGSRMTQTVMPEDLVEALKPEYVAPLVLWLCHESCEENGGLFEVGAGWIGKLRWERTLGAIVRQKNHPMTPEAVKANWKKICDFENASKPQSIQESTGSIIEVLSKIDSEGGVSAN
CYP2C9, sequence (P11712 whole entry): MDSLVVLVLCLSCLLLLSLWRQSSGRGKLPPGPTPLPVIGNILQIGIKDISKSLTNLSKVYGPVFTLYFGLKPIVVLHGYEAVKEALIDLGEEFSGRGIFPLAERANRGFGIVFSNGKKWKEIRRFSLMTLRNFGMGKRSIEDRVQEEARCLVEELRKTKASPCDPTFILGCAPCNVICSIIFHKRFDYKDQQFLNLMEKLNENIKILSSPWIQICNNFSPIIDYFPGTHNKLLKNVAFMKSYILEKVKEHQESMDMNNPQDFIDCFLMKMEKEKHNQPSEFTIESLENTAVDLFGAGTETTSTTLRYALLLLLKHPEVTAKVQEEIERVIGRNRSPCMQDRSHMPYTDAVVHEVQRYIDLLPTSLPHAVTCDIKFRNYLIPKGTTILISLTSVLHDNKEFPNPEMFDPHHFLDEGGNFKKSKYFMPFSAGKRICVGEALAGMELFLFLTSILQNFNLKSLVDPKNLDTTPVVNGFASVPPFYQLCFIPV
over expressed HSD17β9 in HEK293S cells, sequence (Q92781 whole entry): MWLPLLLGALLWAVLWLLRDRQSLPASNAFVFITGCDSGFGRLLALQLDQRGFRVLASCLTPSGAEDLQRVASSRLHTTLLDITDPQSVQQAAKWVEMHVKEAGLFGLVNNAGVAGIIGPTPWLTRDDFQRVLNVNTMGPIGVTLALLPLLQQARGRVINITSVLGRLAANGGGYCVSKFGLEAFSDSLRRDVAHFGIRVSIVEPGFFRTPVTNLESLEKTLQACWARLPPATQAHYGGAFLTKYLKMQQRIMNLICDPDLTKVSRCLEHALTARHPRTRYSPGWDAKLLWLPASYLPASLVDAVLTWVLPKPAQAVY
over expressed HSD17β13 in HEK293S cells, sequence (Q7Z5P4 20-300): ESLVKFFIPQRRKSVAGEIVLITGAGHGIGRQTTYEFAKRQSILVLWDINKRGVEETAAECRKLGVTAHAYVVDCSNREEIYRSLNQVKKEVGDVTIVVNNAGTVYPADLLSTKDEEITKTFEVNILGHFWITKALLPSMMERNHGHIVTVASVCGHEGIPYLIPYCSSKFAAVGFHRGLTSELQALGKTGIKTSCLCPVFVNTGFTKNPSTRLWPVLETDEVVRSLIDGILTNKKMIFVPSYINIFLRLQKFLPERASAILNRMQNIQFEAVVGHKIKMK

`O=C(c1noc(-c2cc(F)c(F)c(O)c2F)n1)N1CCC(Oc2ccc(F)cc2)C1` (centres unmarked) [Example 79, (3-(4-Fluorophenoxy)pyrrolidin-1-yl)(5-(2,4,5-trifluoro-3-hydroxyphenyl)-1,2,4-oxadiazol-3-yl)methanone]: the values for the IC50 (in series [1]; in series [2]; against CYP2C9) were 1390 nM, 106 nM and 2000 nM, respectively. Further, in the series on human hepatocytes, the “Assay A: Human Heps Met Clint GMean CLint (μl/min/1E6)” value was determined as 10.1 μl/min/1E6.

For the molecule `N#Cc1c(C(=O)N2CCN(c3ccc4nnc(C(F)(F)F)n4n3)CC2)noc1-c1cc(F)c(F)c(O)c1F` [Example 17, 5-(2,4,5-Trifluoro-3-hydroxyphenyl)-3-(4-(3-(trifluoromethyl)-[1,2,4]triazolo[4,3-b]pyridazin-6-yl)piperazine-1-carbonyl)isoxazole-4-carbonitrile], the IC50 was found to be 3100 nM in series [1], 525 nM in series [2] and 200 nM against CYP2C9. Also, the “Assay A: Human Heps Met Clint GMean CLint (μl/min/1E6)” value in the series on human hepatocytes amounted to 6.5 μl/min/1E6.

`O=C(c1noc(-c2cc(F)c(F)c(O)c2F)n1)N1CCC(c2ccccc2)C1` (centres unmarked) [Example 96, (3-Phenylpyrrolidin-1-yl)(5-(2,4,5-trifluoro-3-hydroxyphenyl)-1,2,4-oxadiazol-3-yl)methanone]: the IC50 in series [1] is 170 nM; in series [2], 47 nM; in series [3], 17300 nM; in series [4], 18000 nM; at CYP2C9, 1300 nM.

`CN(C(=O)c1cc(-c2ccc(F)c(O)c2)no1)c1ccnn1C1CCCCC1` [Example 5, N-(1-Cyclohexyl-1H-pyrazol-5-yl)-3-(4-fluoro-3-hydroxyphenyl)-N-methylisoxazole-5-carboxamide]: the IC50 in series [1] was 2610 nM; in series [2], 93 nM; in series [3], greater than 50000 nM; against CYP2C9, 3000 nM.

As for `COc1ccc(C(C)N(C)C(=O)c2noc(-c3cc(F)c(F)c(O)c3F)n2)cc1` (centres unmarked) [Example 78, N-(1-(4-Methoxyphenyl)ethyl)-N-methyl-5-(2,4,5-trifluoro-3-hydroxyphenyl)-1,2,4-oxadiazole-3-carboxamide], the figures for the IC50 (in series [1]; in series [2]; on CYP2C9) were 800 nM, 127 nM and 3000 nM, respectively. In addition, in the series on human hepatocytes, the “Assay A: Human Heps Met Clint GMean CLint (μl/min/1E6)” value is recorded as 28.2 μl/min/1E6.

Consider `N#Cc1c(C(=O)N2CCC(O)(C(F)(F)F)CC2)noc1-c1cc(F)c(F)c(O)c1F` [Example 26, 3-(4-Hydroxy-4-(trifluoromethyl)piperidine-1-carbonyl)-5-(2,4,5-trifluoro-3-hydroxyphenyl)isoxazole-4-carbonitrile], for which the IC50 in series [1] is 2970 nM; in series [2], 278 nM; against CYP2C9, 4400 nM. Also, the “Assay A: Human Heps Met Clint GMean CLint (μl/min/1E6)” value in the series on human hepatocytes turned out to be 9.2 μl/min/1E6.

Regarding `C[C@@H]1COC[C@H](C)N1C(=O)c1noc(-c2cc(F)c(F)c(O)c2F)n1` [Example 36, ((3R,5S)-3,5-Dimethylmorpholino)(5-(2,4,5-trifluoro-3-hydroxyphenyl)-1,2,4-oxadiazol-3-yl)methanone], the IC50 is 1320 nM in series [1], 1030 nM in series [2], greater than 50000 nM in series [3] and greater than 50000 nM in series [4].

Take `O=C(c1noc(-c2cc(F)c(F)c(O)c2F)n1)N1CCc2ccccc2C1` [Example 64, (3,4-Dihydroisoquinolin-2(1H)-yl)(5-(2,4,5-trifluoro-3-hydroxyphenyl)-1,2,4-oxadiazol-3-yl)methanone]: the IC50 in series [1] is 270 nM; in series [2] it was 48 nM; in series [3], 11200 nM; in series [4] it was 5600 nM.

On to `O=C(c1noc(-c2cc(F)c(F)c(O)c2F)n1)N1CC2CC2(c2ccccc2)C1` (centres unmarked) [Example 77, (1-Phenyl-3-azabicyclo[3.1.0]hexan-3-yl)(5-(2,4,5-trifluoro-3-hydroxyphenyl)-1,2,4-oxadiazol-3-yl)methanone], for which the results for the half-maximal inhibitory concentration (IC50) (in series [1]; in series [2]; at CYP2C9) were 170 nM, 75 nM and 300 nM, respectively. For the same molecule, the “Assay A: Human Heps Met Clint GMean CLint (μl/min/1E6)” value with human hepatocytes came out at 13.4 μl/min/1E6.

Take `O=C(Nc1ccnn1C1CCCCC1)c1cnc(-c2ccc(F)c(O)c2)o1` [Example 12, N-(1-Cyclohexyl-1H-pyrazol-5-yl)-2-(4-fluoro-3-hydroxyphenyl)oxazole-5-carboxamide]: the IC50 in series [1] was greater than 50000 nM; in series [2], 4340 nM; against CYP2C9, 21200 nM.

`CN(C(=O)c1cc(-c2ccc(F)c(O)c2)on1)c1ccnn1C1CCCCC1` [Example 7, N-(1-Cyclohexyl-1H-pyrazol-5-yl)-5-(4-fluoro-3-hydroxyphenyl)-N-methylisoxazole-3-carboxamide]: the IC50 in series [1] was 5050 nM; in series [2], 83 nM; in series [4], greater than 50000 nM; against CYP2C9, 8400 nM.

Take `O=C(c1cc(-c2ccc(F)c(O)c2)no1)N1CCC(c2ccccc2)C1` (centres unmarked) [Example 6, (3-(4-Fluoro-3-hydroxyphenyl)isoxazol-5-yl)(3-phenylpyrrolidin-1-yl)methanone]: the IC50 in series [1] is 980 nM; in series [2], 41 nM; in series [3], greater than 50000 nM; in series [4], 89100 nM.

As for `O=C(c1noc(-c2cc(F)c(F)c(O)c2F)n1)N1CCN(c2nc3ccccc3o2)CC1` [Example 72, (4-(Benzo[d]oxazol-2-yl)piperazin-1-yl)(5-(2,4,5-trifluoro-3-hydroxyphenyl)-1,2,4-oxadiazol-3-yl)methanone], the IC50 was 1120 nM in series [1], 62 nM in series [2], greater than 50000 nM in series [3] and 19000 nM in series [4].

Consider `O=C(c1noc(-c2cc(F)c(F)c(O)c2F)n1)N1CCOCC1` [Example 39, Morpholino(5-(2,4,5-trifluoro-3-hydroxyphenyl)-1,2,4-oxadiazol-3-yl)methanone], for which the concentration for half-maximal inhibition (IC50) in series [1] was 1480 nM; in series [2], 1740 nM; in series [3], greater than 50000 nM; in series [4], greater than 50000 nM.

As for `O=C(c1noc(-c2cc(F)c(F)c(O)c2F)n1)N1CC[C@@H](c2ccc(Cl)cc2)C1` [Example 103, (S)-(3-(4-Chlorophenyl)pyrrolidin-1-yl)(5-(2,4,5-trifluoro-3-hydroxyphenyl)-1,2,4-oxadiazol-3-yl)methanone], the IC50 in series [1] turned out to be 530 nM; in series [2], 26 nM; in series [3], 24900 nM; in series [4] it was 6500 nM; against CYP2C9, 800 nM.

Take `O=C(c1noc(-c2cc(F)c(F)c(O)c2F)n1)N1CCSCC1` [Example 40, Thiomorpholino(5-(2,4,5-trifluoro-3-hydroxyphenyl)-1,2,4-oxadiazol-3-yl)methanone]: the IC50 in series [1] was 1460 nM; in series [2] it was 700 nM; in series [3], greater than 50000 nM; in series [4], greater than 50000 nM.

As usually defined, the IC50 is the concentration needed to halve the response being measured.
